Structures are written as SMILES. pEC50: −log10 of the molar value. ≈ marks a conversion by molar mass, not a printed value.

Series [1] deals with T1, Glucose-dependent insulinotropic receptor (Homo sapiens) (UniProt Q8TDV5).
T1 sequence (whole entry): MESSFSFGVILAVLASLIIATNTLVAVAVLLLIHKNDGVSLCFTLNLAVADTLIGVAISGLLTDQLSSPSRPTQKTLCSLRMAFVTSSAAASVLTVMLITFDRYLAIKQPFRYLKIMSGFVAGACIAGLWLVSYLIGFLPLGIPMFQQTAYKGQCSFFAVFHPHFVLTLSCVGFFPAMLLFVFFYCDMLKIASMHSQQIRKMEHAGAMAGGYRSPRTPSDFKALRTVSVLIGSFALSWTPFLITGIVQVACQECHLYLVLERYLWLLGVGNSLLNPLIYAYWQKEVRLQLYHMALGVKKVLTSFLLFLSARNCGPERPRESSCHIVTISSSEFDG
Briefly: Agonist activity at human GPR119 receptor expressed in CHO-K1 cells co-transfected with 6CRE-Luc after 5 hrs by luciferase reporter gene assay relative to N-(4-(1H-1,2,4-triazol-1-yl)phenyl)-5-nitro-6-(4-(pyridin-2-ylthio)piperidin-1-yl)pyrimidin-4-amine maximal response. The class given is functional, cell-based. A general note: Reporter assays use an easily measured gene product as a stand-in for the process of interest.

Series [2] has as its target T2, Glucose-dependent insulinotropic receptor (Homo sapiens, UniProt Q8TDV5).
T2 sequence (Q8TDV5 whole entry): T1 sequence (whole entry)
Briefly: Agonist activity at human GPR119 receptor expressed in CHO-K1 cells co-transfected with 6CRE-Luc after 5 hrs by luciferase reporter gene assay. The class given is functional, cell-based.

A short description of series [3]: Half life in mouse at 30 mg/kg, po. The settings on record: in vivo. Format: ADME, organism-based. Also noted: dose 30 mg/kg, route oral.
A short description of series [4]: Cmax in mouse at 3 mg/kg, iv. Format: ADME, organism-based. Set-up: dose 3 mg/kg, route intravenous. As to conditions: in vivo.
The nature of series [5]: Solubility in fasted simulated intestinal fluid at pH 6.5. Format: physicochemical.
The nature of series [6]: Membrane permeability by PAMPA method. The class given is ADME. As to conditions: read-out: permeability. On the technique in general: PAMPA measures passive passage across an artificial lipid membrane.
Series [7] is described as follows: AUC (0 to 24) in mouse at 30 mg/kg, po. Format: ADME, organism-based. Also noted: time < 24 hr, dose 30 mg/kg, route oral. As to conditions: plasma.
Series [8] can be described thus: Tmax in mouse at 3 mg/kg, iv. The class given is ADME, organism-based. As to conditions: in vivo. Also noted: dose 3 mg/kg, route intravenous.
Series [9] in a line: Half life in mouse at 3 mg/kg, iv. The class given is ADME, organism-based. Set-up: dose 3 mg/kg, route intravenous. The settings on record: in vivo.
Series [10] can be described thus: Volume of distribution at steady state in mouse at 3 mg/kg, iv. The class given is ADME, organism-based. Set-up: dose 3 mg/kg, route intravenous. The settings on record: in vivo, read-out: Vdss.
Series [11] in a line: Tmax in mouse at 30 mg/kg, po. Format: ADME, organism-based. Also noted: dose 30 mg/kg, route oral. The settings on record: in vivo.
Series [12] is described as follows: Oral bioavailability in mouse at 30 mg/kg. The class given is ADME, organism-based. As to conditions: in vivo.
In another series the test system is Mus musculus. Put plainly: Clearance in mouse at 3 mg/kg, iv. Format: ADME, organism-based. Also noted: dose 3 mg/kg, route intravenous. As to conditions: in vivo.
Series [13] is described as follows: Cmax in mouse at 30 mg/kg, po. Format: ADME, organism-based. Set-up: dose 30 mg/kg, route oral. As to conditions: in vivo.
Series [14] is described as follows: AUC (0 to 24) in mouse at 3 mg/kg, iv. The class given is ADME, organism-based. Set-up: time < 24 hr, dose 3 mg/kg, route intravenous. As to conditions: plasma.
The target in series [15] is T2, Glucose-dependent insulinotropic receptor. Briefly: Agonist activity at human GPR119 receptor by cAMP mobilization assay. The class given is functional.

Usually pEC50 stands for the EC50 on a negative log10 scale, so that one unit is a factor of ten. In the case of `CC(C)OC(=O)N1CCC(COc2ccc(N3CCN(S(=O)(=O)c4cccs4)CC3)nc2)CC1`, in series [1], the Activity turned out to be 69%. This molecule showed a negative logarithm of the EC50 (pEC50) in series [2] of 5.74.

On to `CCCS(=O)(=O)N1CCN(c2ccc(OCC3CCN(C(=O)Nc4ccc(C(C)C)cc4)CC3)cn2)CC1`, for which, in series [1], the Activity is 67%. For the same molecule, the pEC50 in series [2] was 6.05.

`CC(C)NC(=O)CN1CCN(c2ccc(OCC3CCN(C(=O)OC(C)C)CC3)cn2)CC1`: the Activity in [1] was determined as 11%. For the same molecule, in series [2], the negative-log EC50 (pEC50) is below 5.00.

As a reminder, the half-life is the time needed for the level to fall by half in the phase considered. Read a low half-life as fast loss. What is called Cmax is the highest concentration seen after dosing. What is called solubility is the dissolved amount per volume that the medium holds. What is called AUC is concentration integrated over time. Low readings indicate less exposure, high ones more exposure. For orientation: Tmax means the time from dosing to the highest level. A word on the bioavailability: it is the share of a dose that reaches the circulation, judged against a reference dose that is usually intravenous. A high value points to much systemic uptake. Usually clearance stands for the volume of plasma or blood freed of the substance per unit of time. A low value points to inefficient removal. Turning to `CCCS(=O)(=O)N1CCN(c2ccc(OCC3CCN(C(=O)OC(C)C)CC3)cn2)CC1`, the half-life in series [3] was 24 min; in [9] it was 37.2 min. In addition, the figures for the highest concentration (Cmax) in series [4] and in series [13] were 3080 ng/mL and 3000 ng/mL, respectively. This molecule also gave an Activity in [1] of 153%. This molecule showed a negative logarithm of the EC50 (pEC50) in [2] of 6.52. This molecule gave a solubility in series [5] of 3.41 µg/mL (≈ 7.28 µM). In series [6], the Papp is 47 ×10⁻⁶ cm/s. Besides, the exposure (AUC) at 24 h in series [7] was 2350 ng·h/mL; in [14], 3130 ng·h/mL. Moreover, the time of peak concentration (Tmax) was 45 min in series [8] and 15 min in series [11]. For the same molecule, in series [10], the Vd worked out at 0.76 L/kg. Further, the bioavailability in series [12] came to 8%. Besides, in the series on Mus musculus, the clearance worked out at 15.7 mL/min/kg.

The molecule `CCCS(=O)(=O)N1CCN(c2ccc(OCC3CCN(C(=O)NC4CCCCC4)CC3)cn2)CC1` had an Activity in series [1] of 16%. In series [2], this molecule showed a pEC50 below 5.00.

Consider `CCN(CC)S(=O)(=O)N1CCN(c2ccc(OCC3CCN(C(=O)OC(C)C)CC3)cn2)CC1`, for which, in series [1], the Activity was determined as 125%. In series [2], this molecule showed a negative logarithm of the EC50 (pEC50) of 5.92.

Take `CCCCS(=O)(=O)N1CCN(c2ccc(OCC3CCN(C(=O)OC(C)C)CC3)cn2)CC1`: in series [1], the Activity is 164%. In addition, in [2], the negative logarithm of the EC50 (pEC50) was 7.00.

On to `CC(=O)N1CCN(c2ccc(OCC3CCN(C(=O)OC(C)C)CC3)cn2)CC1`, for which the Activity in series [1] was below 10%. Moreover, in series [2], the pEC50 is below 5.00.

For `CCCS(=O)(=O)N1CCN(c2ccc(OCC3CCN(C(=O)C(F)F)CC3)cn2)CC1`, the Activity in [1] amounted to 97%. For the same molecule, the pEC50 in [2] was 5.68.

Molecule `CC(C)OC(=O)N1CCC(COc2ccc(N3CCN(C(=O)c4ccco4)CC3)nc2)CC1` showed an Activity in series [1] of 112%. For the same molecule, the negative logarithm of the EC50 (pEC50) in series [2] was 5.72.

As for `CCCS(=O)(=O)N1CCN(c2ccc(OCC3CCN(C(=O)NC(C)C)CC3)cn2)CC1`, the Activity in series [1] turned out to be 45%. This molecule had a negative-log EC50 (pEC50) in [2] of 6.00.

Consider `CCS(=O)(=O)N1CCN(c2ccc(OCCC3CCN(C(=O)OC(C)C)CC3)cn2)CC1`, for which the Activity in series [1] is 69%. This molecule also gave a pEC50 in [2] of 5.92.

In series [1], `CC(C)OC(=O)N1CCC(COc2ccc(N3CCN(C(=O)N(C)C)CC3)nc2)CC1` gave an Activity of 23%. In series [2], the pEC50 is below 5.00.

In series [1], `CC(C)OC(=O)N1CCC(COc2ccc(N3CCN(S(=O)(=O)C4CCCCC4)CC3)nc2)CC1` gave an Activity of 165%. For the same molecule, the pEC50 in series [2] was 6.70.

In [1], `CCCS(=O)(=O)N1CCN(c2ccc(OCC3CCN(C(=O)N4CCOCC4)CC3)cn2)CC1` had an Activity of 41%. Besides, the pEC50 in series [2] is below 5.00.

Turning to `CCS(=O)(=O)N1CCN(c2ccc(OCC3CCN(C(=O)OC(C)C)CC3)cn2)CC1`, the Activity in [1] is 167%. For the same molecule, the pEC50 in [2] was 5.89.

In the case of `CC(C)OC(=O)N1CCC(COc2ccc(N3CCN(S(=O)(=O)N4CCCCC4)CC3)nc2)CC1`, in series [1], the Activity stood at 118%. Also, in series [2], the pEC50 is 6.00.

In series [1], `CCCS(=O)(=O)N1CCN(c2ccc(OCC3CCN(C(=O)CC(C)(C)C)CC3)cn2)CC1` displayed an Activity of 175%. In series [2], the pEC50 is 5.55.

`CCCS(=O)(=O)N1CCN(c2ccc(OCC3CCN(C(=O)NC(C)(C)C)CC3)cn2)CC1` registered an Activity in series [1] of 75%. The molecule further gave a pEC50 in series [2] of 6.10.

For the molecule `CCCS(=O)(=O)N1CCN(c2ccc(OCC3CCN(C(=O)c4ccco4)CC3)cn2)CC1`, in series [1], the Activity is 112%. This molecule also showed a pEC50 in [2] of 5.70.

On to `CCCS(=O)(=O)N1CCN(c2ccc(OCCC3CCN(C(=O)OC(C)C)CC3)cn2)CC1`, for which the Activity in [1] is 95%. In [2], this molecule had a pEC50 of 6.15.

Regarding `CCS(=O)(=O)N1CCN(c2ccc(OC3CCN(C(=O)OC(C)C)CC3)cn2)CC1`, in series [1], the Activity is 93%. In series [2], the negative logarithm of the EC50 (pEC50) is 5.68.

Turning to `O=[N+]([O-])c1c(Nc2ccc(-n3cncn3)cc2)ncnc1N1CCC(Sc2ccccn2)CC1`, the pEC50 in [15] was 6.89.

Turning to `CC(C)OC(=O)N1CCC(COc2ccc(N3CCN(S(=O)(=O)CC4CCCCC4)CC3)nc2)CC1`, the Activity in [1] came to 136%. This molecule showed a pEC50 in series [2] of 7.05.

Molecule `CCCS(=O)(=O)N1CCN(c2ccc(OCC3CCN(C(=O)CC(C)C)CC3)cn2)CC1` had an Activity in series [1] of 186%. In addition, the pEC50 in series [2] is 5.80.

Regarding `COCCN1CCN(c2ccc(OCC3CCN(C(=O)OC(C)C)CC3)cn2)CC1`, the Activity in series [1] was determined as 28%. The same molecule showed a negative-log EC50 (pEC50) in [2] of 5.59.

Consider `CC(C)OC(=O)N1CCC(COc2ccc(N3CCN(S(=O)(=O)c4cccnc4)CC3)nc2)CC1`, for which the Activity in series [1] is 100%. For the same molecule, in [2], the negative logarithm of the EC50 (pEC50) is 5.70.

`COCCS(=O)(=O)N1CCN(c2ccc(OCC3CCN(C(=O)OC(C)C)CC3)cn2)CC1`: the Activity in series [1] was 178%. This molecule had a pEC50 in [2] of 6.52.

In [1], `CC(C)OC(=O)N1CCC(COc2ccc(N3CCN(S(=O)(=O)C(C)C)CC3)nc2)CC1` yielded an Activity of 171%. The same molecule showed a pEC50 in series [2] of 6.52.
